The target of test [1] is T1, HDAC6 (Homo sapiens, UniProt Q9UBN7).
T1 sequence (Q9UBN7 1-1215): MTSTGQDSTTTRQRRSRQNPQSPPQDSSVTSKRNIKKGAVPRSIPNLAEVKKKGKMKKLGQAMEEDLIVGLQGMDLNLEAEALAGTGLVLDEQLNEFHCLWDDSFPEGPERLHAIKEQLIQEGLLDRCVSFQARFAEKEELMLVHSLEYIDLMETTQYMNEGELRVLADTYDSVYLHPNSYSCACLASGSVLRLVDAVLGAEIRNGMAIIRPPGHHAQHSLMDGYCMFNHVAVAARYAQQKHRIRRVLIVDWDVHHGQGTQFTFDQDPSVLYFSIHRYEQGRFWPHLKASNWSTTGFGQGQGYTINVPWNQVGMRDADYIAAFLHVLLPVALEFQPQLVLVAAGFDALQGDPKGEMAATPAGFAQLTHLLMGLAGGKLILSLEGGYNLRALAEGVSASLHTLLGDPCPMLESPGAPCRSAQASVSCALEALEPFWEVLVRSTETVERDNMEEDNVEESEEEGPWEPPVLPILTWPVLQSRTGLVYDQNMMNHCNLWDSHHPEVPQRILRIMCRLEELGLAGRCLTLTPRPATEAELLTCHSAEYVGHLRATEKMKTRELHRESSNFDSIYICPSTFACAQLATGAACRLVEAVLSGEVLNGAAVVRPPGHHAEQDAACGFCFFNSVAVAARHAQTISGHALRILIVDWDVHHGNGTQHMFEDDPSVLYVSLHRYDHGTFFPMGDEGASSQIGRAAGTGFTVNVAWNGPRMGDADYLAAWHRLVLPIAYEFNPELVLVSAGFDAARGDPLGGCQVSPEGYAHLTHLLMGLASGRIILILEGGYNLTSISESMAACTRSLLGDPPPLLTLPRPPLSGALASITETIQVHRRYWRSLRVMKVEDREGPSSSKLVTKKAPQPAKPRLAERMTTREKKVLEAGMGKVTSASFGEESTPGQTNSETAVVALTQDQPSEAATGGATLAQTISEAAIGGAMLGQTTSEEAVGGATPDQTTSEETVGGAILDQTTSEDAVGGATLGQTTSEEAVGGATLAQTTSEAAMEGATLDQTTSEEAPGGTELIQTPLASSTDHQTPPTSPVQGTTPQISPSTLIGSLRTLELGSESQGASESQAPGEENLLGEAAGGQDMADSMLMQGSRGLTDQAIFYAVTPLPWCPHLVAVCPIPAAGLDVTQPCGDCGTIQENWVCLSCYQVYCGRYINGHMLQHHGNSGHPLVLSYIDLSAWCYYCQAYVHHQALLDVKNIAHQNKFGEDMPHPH
Nature of the test: Fluorogenic HDAC assay kit (BPS Bioscience), HDAC6 inhibition. The format is biochemical. To be noted: for IC50: purified/recombinant enzyme, inhibitor range 10,000-0.1 nM; for IC50 0 ratio (1/6): ratio IC50 HDAC1 / IC50 HDAC6. How it is done: (§1) Various compounds were tested in in vitro enzyme assays for their activity in inhibiting HDAC6 and HDAC1. The assays used was a fluorogenic HDAC assay kit (BPS Bioscience, San Diego, Calif.). On a micotiter the HDAC fluorometric substrate containing an aceylated side chain is incubated with a sample containing HDAC activity (purified/recombinant HDAC1 or HDAC6 enzyme). The deacetylation sensitizes the substrate so subsequent treatment with a lysine developer produces a fluorophore that can then be measured using a fluorescence reader. The assay is performed in the absence and presence of the potential inhibitor compound.
(§2) Follow BPS Bioscience Fluorogenic HDAC Assay Kit (see Example 2). Range of inhibitor compounds tested: 10,000-0.1 nM

In test [2] the target is HDAC1 (Homo sapiens, UniProt Q13547). The experiment in a line: Fluorogenic HDAC assay kit (BPS Bioscience), HDAC1 inhibition. The following applies: purified/recombinant enzyme; inhibitor range 10,000-0.1 nM. Format: biochemical. The method, then: as §1, §2
Test [3] concerns NP-C fibroblasts. Nature of the test: Esterification of LDL-derived cholesterol (cholesteryl [3H]oleate formation) in NP-C fibroblasts. The format is cell-based, human. The following applies: 24 h treatment with 5 μM SAHA after 4 d in LPDS; FIG. 4B. How it is done: Cells were grown for 4 d in LPDS, followed by a 24 h treatment with or without 5 μM SAHA, the last 4 h of which included LDL plus [^3H]oleate. *P<0.05, treated vs. untreated cells by two-tailed Student's t-test.

Test [4] has as its system NP-C mutant fibroblasts. Format: cell-based, human.
The subject of test [5] is HDAC genes in NPC-26 fibroblasts. Nature of the test: qRT-PCR of HDAC gene expression in NPC-26 fibroblasts. The format is cell-based, human. The following applies: NPC-26 fibroblasts treated with HDAC inhibitor; FIG. 3B.

Sequence of HDAC1 (Q13547 whole entry): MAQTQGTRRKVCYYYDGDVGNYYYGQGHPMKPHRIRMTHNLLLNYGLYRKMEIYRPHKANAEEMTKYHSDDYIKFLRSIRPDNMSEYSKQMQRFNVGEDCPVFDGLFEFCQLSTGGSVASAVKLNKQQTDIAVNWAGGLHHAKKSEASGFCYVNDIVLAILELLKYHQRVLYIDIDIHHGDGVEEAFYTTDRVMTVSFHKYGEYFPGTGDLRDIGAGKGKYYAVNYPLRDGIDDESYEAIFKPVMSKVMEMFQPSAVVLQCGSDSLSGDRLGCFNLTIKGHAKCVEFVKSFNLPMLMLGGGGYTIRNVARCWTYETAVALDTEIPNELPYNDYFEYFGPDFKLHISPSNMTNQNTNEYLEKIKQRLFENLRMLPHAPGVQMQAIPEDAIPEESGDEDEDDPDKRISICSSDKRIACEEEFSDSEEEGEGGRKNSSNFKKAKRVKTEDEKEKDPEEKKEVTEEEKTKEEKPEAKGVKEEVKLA

As to `O=C(CCCCCCC(=O)Nc1ccc(C(C(=O)Nc2cccc3cccnc23)C(=O)Nc2cccc3cccnc23)cc1)NO` [Compound 6, N^1-(4-(1,3-Dioxo-1,3-bis(quinolin-8-ylamino)propan-2-yl)phenyl)-N^8-hydroxyoctanediamide], in test [1], the IC50 (usually the concentration at which inhibition is half-maximal) amounted to 2.25 nM and the “IC50 0 ratio (1/6)” value turned out to be 107. Besides, the 50% inhibitory concentration (IC50) in test [2] is 242 nM.

`O=C(CCCCCCC(=O)Nc1ccc(C(C(=O)Nc2ccccc2)C(=O)Nc2ccccc2)cc1)NO` [Compound 9, N^1-(4-(1,3-Dioxo-1,3-bis(phenylamino)propan-2-yl)phenyl)-N^8-hydroxyoctanediamide]: in test [1], the half-maximal inhibitory concentration (IC50) worked out at 3 nM and the “IC50 0 ratio (1/6)” value stood at 42.9. In addition, in test [2], the 50% inhibitory concentration (IC50) was 129 nM.

As to `O=C(CCCCCCCC(=O)Nc1ccc(C(C(=O)Nc2cccc3cccnc23)C(=O)Nc2cccc3cccnc23)cc1)NO` [Compound 28, N^1-(4-(1,3-dioxo-1,3-bis(quinolin-8-ylamino)propan-2-yl)phenyl)-N^9-hydroxynonanediamide], in test [1], the IC50 was found to be 57 nM and the “IC50 0 ratio (1/6)” value was determined as 25. The IC50 in test [2] is 1440 nM.

Regarding `O=C(CCCCCC(=O)Nc1ccc(C(C(=O)Nc2cccc3cccnc23)C(=O)Nc2cccc3cccnc23)cc1)NO` [Compound 31, N^1-(4-(1,3-dioxo-1,3-bis(quinolin-8-ylamino)propan-2-yl)phenyl)-N^7-hydroxyheptanediamide], the values for the concentration for half-maximal inhibition (IC50) in test [1] and in test [2] were 22 nM and 1130 nM, respectively. Also, the “IC50 0 ratio (1/6)” value in test [1] worked out at 51.

On to `O=C(CCCCCCNC(=O)c1ccc(C(C(=O)Nc2cccc3cccnc23)C(=O)Nc2cccc3cccnc23)cc1)NO` [Compound 61, 2-(4-(7-(hydroxyamino)-7-oxoheptylcarbamoyl)phenyl)-N1,N3-di(quinolin-8-yl)malonamide], for which the half-maximal inhibitory concentration (IC50) in test [1] came out at 12 nM; in test [2], 1040 nM. Also, the “IC50 0 ratio (1/6)” value in test [1] came out at 87.

With `O=C(CCCCCCNC(=O)c1ccc(C(F)(C(=O)Nc2cccc3cccnc23)C(=O)Nc2cccc3cccnc23)cc1)NO` [Compound 65, 2-Fluoro-2-(4-(7-(hydroxyamino)-7-oxoheptylcarbamoyl)phenyl)-N1,N3-di(quinolin-8-yl)malonamide], in test [1], the IC50 amounted to 42 nM and the “IC50 0 ratio (1/6)” value is listed as 58. Further, the half-inhibitory concentration (IC50) in test [2] amounted to 2450 nM.

As for `CC(C)(C)c1ccc(NC(=O)C(CCCCCC(=O)NO)C(=O)Nc2ccc(C(C)(C)C)cc2)cc1` [Compound 77], in test [1], the IC50 stood at 34.4 nM and the “IC50 0 ratio (1/6)” value is listed as 3.1. Also, the half-maximal inhibitory concentration (IC50) in test [2] amounted to 106 nM.

`CC(C)(C)c1ccc(CNC(=O)CCCCCCCC(=O)NO)cc1` [Compound 78]: the IC50 amounted to 65.7 nM in test [1] and 676 nM in test [2]. Moreover, the “IC50 0 ratio (1/6)” value in test [1] was found to be 10.3.

On to `CC(C)(C)OC(=O)Nc1ccc(-c2csc(C(=O)NCCCCCCC(=O)NO)c2)cc1` [Compound 79], for which, in test [1], the IC50 stood at 4.4 nM and the “IC50 0 ratio (1/6)” value is reported as 10.6. Besides, the IC50 in test [2] is 46.7 nM.

Turning to `CC(C)(C)OC(=O)Nc1ccc(-c2cc(C(=O)NCCCCCCC(=O)NO)no2)cc1` [Kozikowski compound, reference compound], the concentration for half-maximal inhibition (IC50) in test [2] was determined as 38.4 nM.

Regarding `O=C(CCCCCCC(=O)Nc1ccccc1)NO` [SAHA, suberoylanilide hydroxamic acid], the “esterification of LDL-derived cholesterol (percent cholesteryl [3H]oleate formation relative to total lipids)” value in test [3] is reported as “Restoration of deficient esterification of LDL-derived cholesterol”. Moreover, the “lysosomal accumulation of unesterified cholesterol (filipin)” value in test [4] is listed as “Reduction in lysosomal accumulation of unesterified cholesterol”. Moreover, the “HDAC gene expression (qRT-PCR)” value in test [5] is recorded as “restores expression in the direction of control cells”.

(Values after patent publication US20140031368A1, “SELECTIVE HDAC INHIBITORS” (THE TRUSTEES OF COLUMBIA UNIVERSITY IN THE CITY OF NEW YORK, priority 2010, published 2014).)
